Data from US20180298340A1, “SYSTEMS FOR DETECTING, MONITORING OR TREATING DISEASES OR CONDITIONS USING ENGINEERED CELLS AND METHODS FOR MAKING AND USING THEM” (The Regents of the University of California, priority 2015, published 2018).

Tests used:
YAP/TAZ [1] = experiment: MRCS-CD on firm substrate treated with mechano-sensing inhibitors; assay type: cell-based, human; settings: firm (~40 kPa) poly-acrylamide; 50 μM blebbistatin, 10 μM ML-7, 20 μM PF228
Method: FIG. 20 graphically illustrates data showing that MRCS-CD is stiffness specific in vitro based on stiffness inhibitor studies. MRCS was plated on firm (approximately 40 kPa) poly-acrylamide and treated with (A,D,G,J) 50 μM blebbistatin and (B,E,H,K) 10 μM ML-7 (myosin light-chain kinase inhibitors) as well as (C,F,I,K) 20 μM PF228 (focal adhesion kinase inhibitor). […] Scale bar=50 μm.
MRCS-CD sensing was also shown to be reversibly stiffness-dependent (FIG. 20). Cells plated on stiff, activating substrate (approximately 40 kPa) were deactivated with the addition of blebbistatin and ML-7 (myosin light-chain kinase inhibitors) or PF228 (a focal adhesion kinase inhibitor). This was seen from the lack of GFP fluorescence (FIG. 20A-C) and from the localization of YAP/TAZ to the cytoplasm (FIG. 20D-F).

YAP/TAZ [2] = experiment: MRCS-Luc luciferase activity on substrates with different stiffness; assay type: cell-based, human; settings: compared to uninhibited cells on stiff, activating substrates
Method: FIG. 18 graphically illustrates data showing that MRCS-luciferase (MRCS-Luc) is stiffness specific in vitro. MRCS-Luc was seeded on substrates with different stiffness. […] D-Luciferin: 150 μg/ml in MSC growth medium. *P<0.05, **P<0.01.
The MRCS with engineered reporter-Luc construct (MRCS-Luc) was also found to be stiffness specific in vitro, similar to MRCS-eGFP (FIG. 18). […] C-MSC constitutively expressing luciferase served as a positive control, and N-MSC with no luciferase activity served as a negative control.

YAP/TAZ [3] = experiment: MRCS-eGFP on firm substrate treated with mechano-sensing inhibitors (immunofluorescence); assay type: cell-based, human; settings: firm (~40 kPa) poly-acrylamide; blebbistatin (5004 [sic]), 10 μM ML-7, 20 μM PF228
Method: FIG. 16A-L illustrate images of exemplary MRCS-eGFP showing that MRCS is stiffness specific in vitro. MRCS was plated on firm (approximately 40 kPa) poly-acrylamide and treated with (FIG. 16A, FIG. 16D, FIG. 16G, FIG. 16J) […] blebbistatin and (FIG. 16B, E, FIG. 16H, FIG. 16K) 10 μM ML-7 (myosin light-chain kinase inhibitors) as well as (FIG. 16C, FIG. 16F, FIG. 16I, FIG. 16K) 20 μM PF228 (focal adhesion kinase inhibitor). […] Scale bar=50 μm.
MRCS-eGFP sensing was also shown to be reversibly stiffness-dependent (FIG. 16). Cells plated on stiff, activating substrate (approximately 40 kPa) were deactivated with the addition of blebbistatin and ML-7 (myosin light-chain kinase inhibitors) or PF228 (a focal adhesion kinase inhibitor). This was seen from the lack of GFP fluorescence (FIG. 16A-C) and from the localization of YAP/TAZ to the cytoplasm (FIG. 16D-F). Real-time RT-PCR was performed on the seeded MRCS-eGFP cells to quantify relative mRNA expression levels of eGFP and two downstream factors of YAP/TAZ, CTGF (Connective Tissue Growth Factor) and ANKRDI (ANKyrin Repeat Domain-containing protein 1) (FIG. 17). […] N-MSC plated on stiff substrate was a control.

[4] = cited from earlier work

cytosine deaminase (CD) of MRCS with inhibitor (YAP/TAZ [1])	luciferase expression levels of MRCS-Luc with inhibitor (YAP/TAZ [2])	Compound	YAP/TAZ localization in MRCS-CD with inhibitor (YAP/TAZ [1])	YAP/TAZ localization in MRCS with inhibitor (YAP/TAZ [3])	eGFP of MRCS with inhibitor (YAP/TAZ [3])	plasma half-life [4]
turned off	significantly lowered	O=S(=O)(c1cccc2c(I)cccc12)N1CCCNCC1 [ML-7]	in cytoplasm	in cytoplasm	turned off	
turned off	significantly lowered	Cc1ccc2c(c1)C(=O)C1(O)CCN(c3ccccc3)C1=N2 (stereo not shown) [blebbistatin]	in cytoplasm	in cytoplasm	turned off	
turned off	significantly lowered	CS(=O)(=O)c1cccc(CNc2nc(Nc3ccc4c(c3)CCC(=O)N4)ncc2C(F)(F)F)c1 [PF228]	in cytoplasm	in cytoplasm	turned off	
		E. coli beta-gal: E. coli beta-galactosidase reporter enzyme				less than 60 min
